The results in this text go back to ChEMBL document CHEMBL1201862, “PubChem BioAssay data set” (2004).

Test [1] has as its target Cyclin-dependent kinase 5/CDK5 activator 1 (Homo sapiens, UniProt Q00535). The experiment in a line: CDK5/p35 kinase inhibitors, dose response, biochemical, cherry-picked samples, set 2 (AID 504545).
The target of test [2] is T1, Oxysterols receptor LXR-beta (Homo sapiens, UniProt P55055).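 Further: agonist activity at LXR measured by a cell-based luminescence readout across a dose range, run as a counterscreen for daf-12 agonists; HEK293 cells with Gal4-LXR fusion and GAL4-driven luciferase reporter; potency for activation of Gal4-LXR reporter so compounds are agonists.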
T1 sequence (P55055 whole entry): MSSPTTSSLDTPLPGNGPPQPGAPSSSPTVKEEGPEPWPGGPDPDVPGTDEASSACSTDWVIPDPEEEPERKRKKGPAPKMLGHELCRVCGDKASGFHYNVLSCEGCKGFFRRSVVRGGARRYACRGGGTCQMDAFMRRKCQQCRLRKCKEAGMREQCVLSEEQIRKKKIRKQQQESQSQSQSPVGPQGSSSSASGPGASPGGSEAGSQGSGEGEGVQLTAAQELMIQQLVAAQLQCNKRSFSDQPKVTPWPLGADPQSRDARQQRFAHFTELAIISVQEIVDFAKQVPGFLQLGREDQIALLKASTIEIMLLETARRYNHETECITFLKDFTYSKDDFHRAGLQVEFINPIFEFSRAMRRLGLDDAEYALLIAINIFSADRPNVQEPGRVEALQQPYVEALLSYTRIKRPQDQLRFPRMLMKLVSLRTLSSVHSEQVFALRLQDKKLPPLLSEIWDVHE
It counts as functional, cell-based.

A short description of test [3]: HepG2 cell cytotoxicity, dose response, cytotoxicity control, ATP luminescence, cherry-pick, activator set 2 (AID 1053143). It is filed as functional, cell-based.
Test [4] addresses Melanin-concentrating hormone receptor 1 (Homo sapiens, UniProt Q99705). The experiment in a line: Fluorescence-based counterscreen for antagonists of the G-protein coupled receptor 7 (GPR7): cell-based high throughput dose response assay to identify antagonists of the melanin-concentrating hormone receptor 1 (MCHR1). It counts as functional.
A further test addresses Cytochrome P450 2C9 (Homo sapiens, UniProt P11712). Conditions: Potency.
The target of another test is Cytochrome P450 3A4 (Homo sapiens, UniProt P08684). The settings on record: Potency.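 Further: confirmatory qHTS run detecting inhibitors and substrates of CYP3A4.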
The test system of the next test is Staphylococcus aureus. The experiment in a line: Inhibitors of Bacterial Quorum Sensing Structure Activity Relationship (SAR) Analysis: Dose Response Assay. [Related pubchem assays: 700, 527 ]. It is filed as functional, organism-based.
For the next test, the system named is HeLa. In words: HeLa cell cytotoxicity, dose response, cytotoxicity control, 24 h, cherry-picked samples (AID 504726).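 Further: potency for cytotoxicity as loss of luminescence signal.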 It counts as functional, cell-based. Conditions: Homo sapiens.
In another test the target is T2, Coagulation factor XII (Homo sapiens, UniProt P00748).
T2 sequence (P00748 whole entry): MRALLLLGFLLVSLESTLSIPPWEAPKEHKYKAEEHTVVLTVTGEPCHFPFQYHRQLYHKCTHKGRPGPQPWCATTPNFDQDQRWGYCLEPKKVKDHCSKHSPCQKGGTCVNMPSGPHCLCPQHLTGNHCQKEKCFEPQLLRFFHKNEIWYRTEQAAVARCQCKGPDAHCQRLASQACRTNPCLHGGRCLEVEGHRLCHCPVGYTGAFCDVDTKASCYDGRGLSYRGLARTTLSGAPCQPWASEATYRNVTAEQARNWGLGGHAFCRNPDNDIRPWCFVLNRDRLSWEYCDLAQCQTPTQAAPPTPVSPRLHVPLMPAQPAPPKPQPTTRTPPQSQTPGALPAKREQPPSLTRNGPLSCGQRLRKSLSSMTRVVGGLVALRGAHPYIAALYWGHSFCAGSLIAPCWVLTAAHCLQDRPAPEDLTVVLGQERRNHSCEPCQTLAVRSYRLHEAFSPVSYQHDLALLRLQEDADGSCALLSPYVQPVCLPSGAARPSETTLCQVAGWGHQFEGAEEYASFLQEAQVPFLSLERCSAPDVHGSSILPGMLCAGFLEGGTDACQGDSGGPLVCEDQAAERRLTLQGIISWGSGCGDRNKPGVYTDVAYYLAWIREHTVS
In words: Factor XIIa Dose Response Confirmation from Single Well HTS. [Related pubchem assays (depositor defined):AID701]. It counts as functional.

The next test has as its system Trypanosoma cruzi. In words: growth inhibition of intracellular Trypanosoma cruzi, dose response, cell-based, plate reader, dry powder, set 3 (AID 493197). It is filed as functional.
For test [5], the target named is NACHT, LRR and PYD domains-containing protein 3 (Homo sapiens, UniProt Q96P20). The experiment in a line: NALP3 inhibitors in yeast, dose response, luminescent (AID 488799). It counts as functional.
A short description of test [6]: Cytotoxicity screening for potential Inhibitors of Bacterial Capsule Biogenesis. [Related pubchem assays (depositor defined):AID488970]. It counts as functional.
In test [7] the target is T3, Microphthalmia-associated transcription factor (Homo sapiens, UniProt O75030).
T3 sequence (O75030 whole entry): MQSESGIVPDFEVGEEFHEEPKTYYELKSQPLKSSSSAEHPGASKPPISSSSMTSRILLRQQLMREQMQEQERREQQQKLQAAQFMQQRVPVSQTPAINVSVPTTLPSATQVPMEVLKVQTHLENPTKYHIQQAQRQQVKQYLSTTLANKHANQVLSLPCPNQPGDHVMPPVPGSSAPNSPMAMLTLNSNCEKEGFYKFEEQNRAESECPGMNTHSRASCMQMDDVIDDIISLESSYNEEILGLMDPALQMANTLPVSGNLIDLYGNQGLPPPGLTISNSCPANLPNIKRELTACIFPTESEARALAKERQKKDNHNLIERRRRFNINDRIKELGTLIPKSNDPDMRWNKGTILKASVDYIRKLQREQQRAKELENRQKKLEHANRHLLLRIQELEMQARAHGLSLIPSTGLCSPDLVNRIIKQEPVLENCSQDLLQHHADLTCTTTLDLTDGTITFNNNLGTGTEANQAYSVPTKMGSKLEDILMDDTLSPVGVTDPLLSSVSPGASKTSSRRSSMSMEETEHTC
In words: TRPM1 promoter luciferase signal decrease, dose response, MITF inhibitor project, cell-based, SK-MEL-5, cherry-picked, set 3 (AID 493073).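 Further: SK-MEL-5 melanoma cells with luciferase driven by the MITF target TRPM1 promoter.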 It is filed as functional.

Test [8] deals with Photoreceptor-specific nuclear receptor (Homo sapiens, UniProt Q9Y5X4). It is filed as functional.
The target of test [9] is Peroxisome proliferator-activated receptor gamma/Nuclear receptor corepressor 2 (Homo sapiens, UniProt P37231+Q9Y618). It counts as functional.
The target in a further test is T4, Aspartyl aminopeptidase (Plasmodium falciparum 3D7, UniProt Q8I2J3).
T4 sequence (Q8I2J3 whole entry): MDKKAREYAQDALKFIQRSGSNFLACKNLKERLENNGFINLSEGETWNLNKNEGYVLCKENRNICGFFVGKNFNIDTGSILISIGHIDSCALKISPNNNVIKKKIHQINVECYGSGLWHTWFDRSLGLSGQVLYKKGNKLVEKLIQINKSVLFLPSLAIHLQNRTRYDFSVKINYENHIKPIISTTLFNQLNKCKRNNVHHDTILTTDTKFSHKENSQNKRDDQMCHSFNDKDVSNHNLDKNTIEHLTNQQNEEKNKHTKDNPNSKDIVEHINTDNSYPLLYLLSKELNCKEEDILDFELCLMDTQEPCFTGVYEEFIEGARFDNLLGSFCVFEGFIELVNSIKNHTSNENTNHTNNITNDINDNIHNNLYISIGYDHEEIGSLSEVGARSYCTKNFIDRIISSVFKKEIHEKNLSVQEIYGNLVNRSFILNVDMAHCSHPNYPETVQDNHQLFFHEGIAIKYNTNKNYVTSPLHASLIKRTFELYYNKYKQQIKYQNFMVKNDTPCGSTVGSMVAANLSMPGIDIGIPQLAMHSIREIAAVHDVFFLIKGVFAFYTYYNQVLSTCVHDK

Another test deals with Procathepsin L (Homo sapiens, UniProt P07711).
For test [10], the target named is Alkaline phosphatase, placental type (Homo sapiens, UniProt P05187). The experiment in a line: PLAP enzyme inhibitors, confirmation, biochemical, luminescence (AID 1512). It counts as functional.
Test [11] deals with Glyceraldehyde-3-phosphate dehydrogenase (Homo sapiens, UniProt P04406).
Test [12] can be described thus: cytotoxicity toward DRD oncogenic fibroblasts, dose response, cell-based, non-viral oncogenic, luminescence (AID 1934). It counts as functional. The settings on record: Homo sapiens.
The target of test [13] is Neurotensin receptor type 1 (Homo sapiens, UniProt P30989). It is filed as functional.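 Further: Image-based confirmatory dose-response assay measuring agonist activity at NTR1; NTR1-expressing U2OS osteosarcoma cells imaged for beta-arrestin GFP spot formation; agonist potency where compounds increase beta-arrestin recruitment.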
The test system of test [14] is BJ. The experiment in a line: cytotoxicity toward BJ-TERT fibroblasts, dose response, cell-based, RAS-independent, luminescence (AID 1933). It counts as functional. The settings on record: Homo sapiens.
Test [15] concerns BJ. In words: cells. It is filed as functional, cell-based. The settings on record: Homo sapiens.
A short description of test [16]: microbe, parasite or virus in culture. Conditions: Mycobacterium tuberculosis. It counts as functional.
Test [17] relates to BJ. In words: cytotoxicity toward BJ-TERT-LT-ST fibroblasts, dose response, cell-based, RAS-independent, luminescence (AID 1935).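 Further: BJ fibroblasts immortalized with TERT plus LT and ST oncogenes.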 It is filed as functional. The settings on record: Homo sapiens.
Test [18] deals with Lysosomal acid glucosylceramidase (Homo sapiens, UniProt P04062). In words: Dose response cell-based high throughput screening assay to identify enhancers of beta-glucosidase activity. [Related pubchem assays: 784 ]. It counts as functional.
In a further test the test system is H4. In words: Luminescence Cell-Based Dose Response HTS to Identify Activators of 5'UTR Stem-Loop Driven Prion Protein mRNA Translation in H4 Neuroglioblastoma Cells. [Related pubchem assays: 1829 (Project Summary), 1814 (Primary HTS)]. It is filed as functional. The settings on record: Homo sapiens.
Test [19] has as its target C-C chemokine receptor type 6 (Homo sapiens, UniProt P51684). In words: CCR6 receptor antagonists, dose response, cell-based, luminescent beta-arrestin readout (AID 504728). It is filed as functional.
Test [20] in a line: Luminescence Cell-Based Dose Response HTS to Identify Activators of Luciferase Translation or Activity in H4 […] Cells. [Related pubchem assays: 1829 (Project Summary), 1814 (Primary HTS)]. It counts as functional.
Test [21] can be described thus: Luminescence Cell-Based Dose Confirmation HTS to Identify Activators of 5'UTR Stem-Loop Driven Alpha-Synuclein mRNA Translation in H4 Neuroglioblastoma Cells. [Related pubchem assays: 1829 (Project Summary), 1814 (Primary HTS)]. It is filed as functional.
The target in the next test is Beta-galactosidase (Escherichia coli, UniProt Q8VNN2). In words: beta-galactosidase enzyme inhibitors and activators, dose response, artefact control for CCR6 antagonist project, biochemical, E. coli enzyme, set 3 (AID 504712). It is filed as functional.
For test [22], the target named is Voltage-dependent T-type calcium channel subunit alpha-1H (Homo sapiens, UniProt O95180). It is filed as functional.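 Further: channel activity triggered by adding a high calcium stimulation buffer.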
The target in test [23] is G-protein coupled receptor 55 (Homo sapiens, UniProt Q9Y2T6). The experiment in a line: GPR55 antagonists blocking LPI-driven arrestin recruitment, primary screen, imaging, U2OS, beta-arrestin-GFP, LPI agonist (AID 2013).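 Further: antagonist potency measured as reduced agonist-driven arrestin aggregation.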 It counts as functional.

Activity calls are given as the source filed them. Where only a bound is given, the exact number is not on record here.

Chain of Alkaline phosphatase, placental type (P05187 whole entry): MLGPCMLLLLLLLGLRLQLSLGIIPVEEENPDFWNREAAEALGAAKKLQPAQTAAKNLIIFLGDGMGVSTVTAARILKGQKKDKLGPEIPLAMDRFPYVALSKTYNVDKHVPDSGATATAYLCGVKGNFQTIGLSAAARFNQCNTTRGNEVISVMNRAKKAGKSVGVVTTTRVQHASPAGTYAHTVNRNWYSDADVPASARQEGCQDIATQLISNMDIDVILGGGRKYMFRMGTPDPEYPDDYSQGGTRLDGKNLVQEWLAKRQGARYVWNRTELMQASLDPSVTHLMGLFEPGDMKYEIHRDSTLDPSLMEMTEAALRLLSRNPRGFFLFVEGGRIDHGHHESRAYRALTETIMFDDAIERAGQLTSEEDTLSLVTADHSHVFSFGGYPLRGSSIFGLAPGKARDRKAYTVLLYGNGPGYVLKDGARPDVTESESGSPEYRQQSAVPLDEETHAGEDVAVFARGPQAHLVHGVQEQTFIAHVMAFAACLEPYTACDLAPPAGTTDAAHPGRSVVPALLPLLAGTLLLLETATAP
Chain of Peroxisome proliferator-activated receptor gamma/Nuclear receptor corepressor 2 (P37231 whole entry): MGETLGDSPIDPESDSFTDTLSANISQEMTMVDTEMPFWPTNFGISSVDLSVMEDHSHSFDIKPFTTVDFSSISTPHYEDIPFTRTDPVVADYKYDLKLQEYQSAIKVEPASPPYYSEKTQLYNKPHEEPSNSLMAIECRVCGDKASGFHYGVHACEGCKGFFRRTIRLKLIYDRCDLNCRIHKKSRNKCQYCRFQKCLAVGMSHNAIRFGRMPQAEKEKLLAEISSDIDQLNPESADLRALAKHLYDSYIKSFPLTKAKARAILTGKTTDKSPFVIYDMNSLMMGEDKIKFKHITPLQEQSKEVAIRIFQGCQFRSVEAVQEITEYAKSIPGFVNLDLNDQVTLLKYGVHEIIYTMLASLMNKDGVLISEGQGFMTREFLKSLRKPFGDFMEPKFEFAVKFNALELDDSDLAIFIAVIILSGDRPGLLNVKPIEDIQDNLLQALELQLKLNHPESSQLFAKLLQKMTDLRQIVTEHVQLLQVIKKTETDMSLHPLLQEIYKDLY
Chain of Peroxisome proliferator-activated receptor gamma/Nuclear receptor corepressor 2 (Q9Y618 whole entry): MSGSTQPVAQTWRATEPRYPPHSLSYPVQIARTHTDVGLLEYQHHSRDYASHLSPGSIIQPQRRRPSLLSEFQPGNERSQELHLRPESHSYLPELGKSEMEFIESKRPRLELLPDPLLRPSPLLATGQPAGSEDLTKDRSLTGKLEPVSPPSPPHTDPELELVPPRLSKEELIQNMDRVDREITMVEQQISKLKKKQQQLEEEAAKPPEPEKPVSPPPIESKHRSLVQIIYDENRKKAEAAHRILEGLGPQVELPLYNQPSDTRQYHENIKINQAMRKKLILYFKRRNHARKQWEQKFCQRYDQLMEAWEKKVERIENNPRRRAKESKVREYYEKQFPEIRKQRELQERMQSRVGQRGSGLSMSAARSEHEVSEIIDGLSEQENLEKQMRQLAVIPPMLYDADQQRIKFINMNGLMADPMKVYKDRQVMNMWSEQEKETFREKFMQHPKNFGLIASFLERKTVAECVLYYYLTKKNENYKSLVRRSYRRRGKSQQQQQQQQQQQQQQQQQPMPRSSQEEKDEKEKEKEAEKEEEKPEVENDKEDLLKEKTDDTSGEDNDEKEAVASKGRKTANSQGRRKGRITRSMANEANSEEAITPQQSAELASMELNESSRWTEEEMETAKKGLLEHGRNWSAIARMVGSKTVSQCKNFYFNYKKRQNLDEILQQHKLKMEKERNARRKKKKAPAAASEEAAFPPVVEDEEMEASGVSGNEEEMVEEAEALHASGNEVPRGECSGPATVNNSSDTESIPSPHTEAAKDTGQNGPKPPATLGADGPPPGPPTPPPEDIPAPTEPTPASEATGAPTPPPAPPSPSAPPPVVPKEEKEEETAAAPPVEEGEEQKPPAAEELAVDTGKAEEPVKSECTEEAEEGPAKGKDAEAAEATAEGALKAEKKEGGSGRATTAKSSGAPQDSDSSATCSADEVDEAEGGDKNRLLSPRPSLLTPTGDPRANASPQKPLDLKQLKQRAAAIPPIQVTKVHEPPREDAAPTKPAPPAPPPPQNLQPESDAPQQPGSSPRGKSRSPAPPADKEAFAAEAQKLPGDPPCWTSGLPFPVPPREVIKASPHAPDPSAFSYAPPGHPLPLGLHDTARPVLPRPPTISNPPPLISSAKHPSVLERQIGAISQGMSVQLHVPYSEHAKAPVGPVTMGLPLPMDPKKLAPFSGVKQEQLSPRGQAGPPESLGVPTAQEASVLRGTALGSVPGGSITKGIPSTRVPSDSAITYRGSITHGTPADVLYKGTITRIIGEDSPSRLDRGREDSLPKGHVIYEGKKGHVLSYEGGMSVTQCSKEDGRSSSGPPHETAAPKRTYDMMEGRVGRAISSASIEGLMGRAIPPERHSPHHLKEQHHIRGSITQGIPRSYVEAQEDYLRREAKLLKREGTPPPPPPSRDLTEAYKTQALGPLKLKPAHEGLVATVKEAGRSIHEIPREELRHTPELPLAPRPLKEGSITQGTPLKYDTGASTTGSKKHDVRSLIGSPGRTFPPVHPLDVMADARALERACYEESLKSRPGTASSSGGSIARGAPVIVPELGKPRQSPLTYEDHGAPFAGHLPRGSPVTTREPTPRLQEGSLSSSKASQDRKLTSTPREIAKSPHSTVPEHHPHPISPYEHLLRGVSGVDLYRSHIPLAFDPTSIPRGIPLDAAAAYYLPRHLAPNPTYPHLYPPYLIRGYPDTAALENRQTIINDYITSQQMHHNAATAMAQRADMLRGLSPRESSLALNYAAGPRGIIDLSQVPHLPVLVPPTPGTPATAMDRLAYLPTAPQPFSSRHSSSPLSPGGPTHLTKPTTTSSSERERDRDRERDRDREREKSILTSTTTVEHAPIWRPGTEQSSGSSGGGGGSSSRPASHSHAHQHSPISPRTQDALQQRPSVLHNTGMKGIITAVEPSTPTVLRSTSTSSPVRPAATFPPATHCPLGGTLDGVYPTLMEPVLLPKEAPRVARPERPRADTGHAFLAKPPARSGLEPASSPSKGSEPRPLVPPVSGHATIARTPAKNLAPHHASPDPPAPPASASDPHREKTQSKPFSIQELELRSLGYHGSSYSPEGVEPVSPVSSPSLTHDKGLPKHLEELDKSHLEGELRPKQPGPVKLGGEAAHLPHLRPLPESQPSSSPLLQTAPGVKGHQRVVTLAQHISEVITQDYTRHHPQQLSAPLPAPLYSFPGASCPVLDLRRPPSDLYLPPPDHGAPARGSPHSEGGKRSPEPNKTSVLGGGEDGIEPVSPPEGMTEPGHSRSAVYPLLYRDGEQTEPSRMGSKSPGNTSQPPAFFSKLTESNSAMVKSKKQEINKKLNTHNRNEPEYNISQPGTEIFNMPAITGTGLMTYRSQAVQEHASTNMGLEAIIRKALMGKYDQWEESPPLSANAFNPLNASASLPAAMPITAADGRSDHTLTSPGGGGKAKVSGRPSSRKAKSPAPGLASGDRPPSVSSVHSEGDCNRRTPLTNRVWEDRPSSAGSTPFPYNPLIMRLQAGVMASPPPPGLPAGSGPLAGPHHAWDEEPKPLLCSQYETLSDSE
Chain of Photoreceptor-specific nuclear receptor (Q9Y5X4 whole entry): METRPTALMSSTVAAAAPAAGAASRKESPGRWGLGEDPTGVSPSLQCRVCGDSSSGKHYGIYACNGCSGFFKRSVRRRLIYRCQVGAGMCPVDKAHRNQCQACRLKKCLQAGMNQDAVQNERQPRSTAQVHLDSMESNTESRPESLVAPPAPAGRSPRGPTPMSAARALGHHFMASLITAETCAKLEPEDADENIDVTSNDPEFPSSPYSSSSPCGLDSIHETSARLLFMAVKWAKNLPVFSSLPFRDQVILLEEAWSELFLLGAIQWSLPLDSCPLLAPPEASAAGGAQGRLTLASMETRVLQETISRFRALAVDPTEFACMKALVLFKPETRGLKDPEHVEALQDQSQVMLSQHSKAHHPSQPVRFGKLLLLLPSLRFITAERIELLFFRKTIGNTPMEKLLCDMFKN
Chain of Lysosomal acid glucosylceramidase (P04062 whole entry): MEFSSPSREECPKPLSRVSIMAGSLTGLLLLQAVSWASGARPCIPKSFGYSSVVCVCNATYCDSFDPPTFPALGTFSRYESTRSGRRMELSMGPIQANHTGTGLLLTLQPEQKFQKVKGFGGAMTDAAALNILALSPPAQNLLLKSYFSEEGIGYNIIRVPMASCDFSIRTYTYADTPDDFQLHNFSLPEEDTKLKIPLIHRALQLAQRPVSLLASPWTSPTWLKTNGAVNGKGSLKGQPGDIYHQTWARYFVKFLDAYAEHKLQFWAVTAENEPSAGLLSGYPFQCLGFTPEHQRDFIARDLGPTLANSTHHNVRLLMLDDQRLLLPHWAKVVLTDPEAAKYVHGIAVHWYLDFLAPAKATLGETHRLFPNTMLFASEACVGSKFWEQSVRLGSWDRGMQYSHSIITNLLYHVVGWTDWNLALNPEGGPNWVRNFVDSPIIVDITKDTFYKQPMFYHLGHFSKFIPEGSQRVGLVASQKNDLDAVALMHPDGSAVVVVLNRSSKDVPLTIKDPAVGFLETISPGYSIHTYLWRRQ
Chain of G-protein coupled receptor 55 (Q9Y2T6 whole entry): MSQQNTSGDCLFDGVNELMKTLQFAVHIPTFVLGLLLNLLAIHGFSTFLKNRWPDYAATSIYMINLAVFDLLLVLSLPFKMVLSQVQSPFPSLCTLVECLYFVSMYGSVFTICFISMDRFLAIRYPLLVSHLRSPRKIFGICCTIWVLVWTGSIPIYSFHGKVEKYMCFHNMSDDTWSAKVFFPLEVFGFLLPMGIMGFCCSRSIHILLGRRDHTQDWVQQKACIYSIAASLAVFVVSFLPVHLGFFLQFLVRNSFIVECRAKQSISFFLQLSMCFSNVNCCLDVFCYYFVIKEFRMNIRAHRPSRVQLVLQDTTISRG

With `COc1ccc(Nc2nccc(-c3cccc(N)c3)n2)cc1`, the AC50 in test [1] is 80.7 µM (active); in [3], 18.8 µM (active). Also, in test [2], the EC50 is > 67.5 µM (inactive).
Turning to `COc1ccnc(Oc2ccc(F)cc2)c1C(=O)N=CNOCc1ccc(F)cc1`, the IC50 in test [4] is 30.3 µM (not active).
Turning to `CCC12C=C(/C=C/c3ccccc3)C(CC)(C1)C(c1ccccc1)CC2=O` (stereo not drawn), the AC50 was 1.58 µM (inconclusive) at Cytochrome P450 2C9 and 6.31 µM (inconclusive) at Cytochrome P450 3A4.
For `O=C(O)c1cccnc1Nc1cccc(SC(F)(F)F)c1`, the IC50 with Staphylococcus aureus was 0.964 µM (active).
`Cc1cccc(Nc2nc(N)c([N+](=O)[O-])c(NCc3ccccc3)n2)c1`: the AC50 with HeLa was 25 µM (active).
With `N#CC1=C2SCC(O)(c3ccccc3)N2C(=O)CC1c1ccccc1F` (stereo not drawn), the IC50 at Coagulation factor XII was 2.02 µM (active).
In the case of `CCCNC(=O)C1(C)CCCN(Cc2cccc(Oc3ccccc3)c2)C1` (stereo not drawn), the AC50 with Trypanosoma cruzi was 9.13 µM (active).
Regarding `Cn1c(=O)c(C(=O)Nc2ncccn2)c(O)c2ccccc21`, in test [5], the IC50 was 13.6 µM (active).
On to `N=c1n(CCN2CCCC2)c2ccccc2n1CC(O)c1ccc(Cl)c(Cl)c1` (stereo not drawn), for which, in test [6], the CC50 is 7.43 µM (active). The AC50 in test [7] was 11.8 µM (active).
`O=C(O)C1CCN(c2nc(-c3ccccc3)c3cc(Br)ccc3n2)CC1`: the figures for the IC50 in [8] and in test [9] were > 39.8 µM (not active) and 2.33 µM (active), respectively.
Regarding `COc1cc([N+](=O)[O-])ccc1N=C(S)Nn1cnnc1`, the IC50 at Aspartyl aminopeptidase was 0.854 µM (active); on Procathepsin L it was > 59.6 µM (not active).
`CC(C)NC(=O)c1cc(-c2ccc(Cl)cc2Cl)n[nH]1`: the IC50 was > 100 µM (inactive) in [10] and > 100 µM (not active) in [11].
Regarding `COc1cc(C(=O)/C=C/c2cccnc2)c([N+](=O)[O-])cc1OC`, the EC50 is 9.22 µM (active) in [12]; 32.1 µM (inactive) in test [13]; 13 µM (active) in the test with BJ [14]; 18.6 µM (active) with BJ [15]; > 75 µM (not active) in the test on BJ [17]. Besides, in test [16], the CC50 was 15.6 µM (active).
Take `O=C(NCCCN1CCCC1=O)c1ccc2c(=O)n(Cc3ccco3)c(=S)[nH]c2c1`: the EC50 in [18] is recorded as > 50 µM (not active).
Turning to `O=C(CSc1nccn1-c1ncc(C(F)(F)F)cc1Cl)c1ccc(Br)cc1`, the concentration giving a half-maximal response (EC50) with H4 was 7.85 µM (active); in test [20], 0.233 µM (active); in test [21], 0.247 µM (active). Moreover, the IC50 (in test [19]; at Beta-galactosidase) was > 66.6 µM (inactive) throughout.
Consider `COc1ccc(-c2noc(CCC(=O)N(C)c3cccc(C)c3)n2)cc1`, for which, in [22], the EC50 was 6.52 µM (active).
Regarding `COC(=O)C1=C(C)N(Cc2ccccc2)C(NCc2cc(OC)c(OC)c(OC)c2)=N[C@H]1c1ccccc1`, the IC50 in test [23] is 3.93 µM (active).
